# In paper PMC11912270, “Synthesis and SAR Studies of Acyl-Thiourea Platinum(II) Complexes Yield Analogs with Dual-Stage Antiplasmodium Activity” (ACS Medicinal Chemistry Letters, 2025):
# Several values for one entry are separate records, joined by “and”; a condition that tells them apart may be missing. Equal entries are not always repeated. Where two headings read alike, the source gives them in different places.
# Assays:
# [1] = Kinetic solubility by HPLC (pH 6.5); conditions: pH 6.5; for Aqueous solubility pH 6.5: kinetic, HPLC
# Description: 1.7. Kinetic solubility by HPLC (pH 6.5)
# Solubility was measured at pH 6.5 using an adapted miniaturized shake-flask method, in 96-well plate format.4,5 Briefly, 4 µL of a 10 mM stock in DMSO was added to a 96-well plate and evaporated using a GeneVac system. Phosphate buffer pH 6.5 was then added to the wells […]
# At the end of this incubation, the […]
# in the analysis plate. Analysis was then performed by HPLC-DAD and the solubility of each sample was determined from the corresponding calibration curve. […]
# [2] = Cyclic voltammetry; assay type: physicochemical; conditions: for Epa1: anodic peak potential; for Epa1 / Epc1: 0.1 V/s; for Epc1: cathodic peak potential
# Text: It is known that Fe^2+/Fe^3+ redox chemistry has an important role in the bioactivity of ferrocene derivatives.[33] The production of reactive oxygen species (ROS) is one of the modes of action of ferroquine and other ferrocene derivatives[34] and is linked to the correlation between their bioactivity and electrochemical behavior. We determined whether a similar correlation could be made for the mixed-ligand platinum(II) complexes reported herein given that metal centers have the potential to be oxidized and reduced. The electrochemistry of the complexes was studied using cyclic voltammetry (CV), which uses a triangular potential waveform. The CV experiments were performed in either dry MeOH or DMF containing tetrabutylammonium chloride (TBACl) as the supporting electrolyte. The working electrode was glassy carbon with a platinum wire as the counter electrode and Ag/AgCl as the reference. The anodic (Epa) and cathodic (Epc) peak potentials at 0.1 V/s and half-wave potentials (E1/2) were measured (Table 3). All of the tested complexes undergo reversible one-electron Pt^2+/Pt^+ reductions (Figures S38–S46). Complexes C2, C4, and C8 undergo a second nonreversible reduction (Epc2), which is most likely ligand-based and linked to reductions of the substituent on the bpy. Looking at SAR2, the more electron-withdrawing the substituent, the […] the E1/2 (V vs Fe/Fe^+) value was. This trend was expected, as a more electron-withdrawing substituent reduces the electron density around the metal center, making it easier for the metal to be reduced from Pt^2+ to Pt^+. […] This is also the case for other bpy-containing platinum(II) complexes that only undergo reductions.[35],[36] […]
# For the cyclic voltammetry experiments a solution of the test compound (1 x 10-3) in DMSO (3 mL) is added to the electrolyte solution (0.1 M tetrabutylammonium chloride (TBACl) in DMSO). The electrochemical measurements were obtained using a Basi Epsilon Eclipse Electrochemical Analyzer Potentiostat and the CV graphs were generated using Excel. The working electrode was glassy carbon (GC) with platinum wire as the counter electrode (CE) and Ag/AgCl as the reference. […]
# [3] = tested on: PfNF54 ABS parasites; test: SYBR Green I-based proliferative assay, PfNF54 ABS parasites; assay type: cell-based, Plasmodium falciparum; conditions: for IC50: ABS, SYBR Green I, 96 h, mean ± S.E., N = 3 (no S.E.: N = 1)
# Description: (§1) The parasites were incubated under drug […]
# (§2) incubation, parasite survival was determined by adding equal volumes of parasite suspension (100 µL) and SYBR Green I lysis buffer (0.2% µL/mL of 10 000x SYBR Green I, 20 mM Tris-HCl, pH 7.5, 5 mM EDTA, 0.008% saponin (w/v) and 0.08% Triton x-100). This was incubated for 1 hour at room temperature in the dark. […]
# [4] = tested on: early-stage gametocytes (NF54-PfS16-GFP-Luc); test: Luciferase reporter assay, early-stage gametocytes; assay type: cell-based, Plasmodium falciparum; conditions: for EG (% inhibition) 1 µM / EG (% inhibition) 5 µM: single biological repeat; for IC50: early (II/III) gametocytes, luciferase, 48 h, read-out: EG IC50
# Description: (§3) All the complexes were tested for their early- and late-stage gametocyte activity in a dual-point assay (1 μM and 5 μM). […]
# (§4) 1.5.In vitro activity against gametocyte stages
# (§5) PfNF54 gametocytes were prepared and isolated according to the method reported by Reader […]
# (§6) The in vitro gametocyte activity of the synthesized complexes was determined using a luciferase reporter line-based assay.
# (§7) NF54-PfS16-GFP-Luc parasites were used for the stage-specific assessment of gametocytocidal activity. Early-stage gametocyte (stage I-III) experiments were performed on day 5 (representing >90% of early-stage and late-stage gametocyte (stages IV/V) experiments were performed on day 10. In each experiment, assays were set up with the use of 2-3% […]
# (§8) Luciferase activity was determined in 30 µL parasite lysates by adding luciferin substrate (30 µL) (Promega Luciferase Assay System) at room temperature. […]
# [5] = tested on: late-stage gametocytes (NF54-PfS16-GFP-Luc); test: Luciferase reporter assay, late-stage gametocytes; assay type: cell-based, Plasmodium falciparum; conditions: for LG (% inhibition) 1 µM / LG (% inhibition) 5 µM: single biological repeat
# Description: as §3, §4, §5, §6, §7, §8
# [6] = tested on: Chinese hamster ovary (CHO) cell line; test: MTT cytotoxicity assay; assay type: cell-based; conditions: cytotoxicity, MTT, 48 h; N, n = 1, 3; read-out: CHO IC50
# Description: 1.6.In vitro cytotoxicity assay
# A 3-(4,5-dimethylthiazol-2-yl)-2,5-diphenyltetrazoliumbromide (MTT) assay was used to screen the metal complexes against the mammalian Chinese hamster ovarian (CHO) cell line.
# A stock solution of each compound (2 mg/mL) in DMSO was prepared and kept at -20 °C until needed. Emetine was used as a reference drug. A starting concentration of 100 µg/mL was used, and serially diluted ten-fold using a complete medium to give the lowest concentration of 0.001 µg/mL (6 dilutions). The plates containing the CHO cells under drug pressure were […]
# Plates containing the drug and cell suspension were developed by adding 25 μL of sterile MTT (Thermo Fisher Scientific) (25 µL) to each well, followed by 4 h […]
# of incubation at room temperature in the dark. The plates were then centrifuged, and the supernatant was removed via aspiration. Sample absorbance was read at a wavelength of 540 […]
# analysis via GraphPad Prism v.4.0 software. The IC50 values were determined for each compound were determined from the dose-response curves. […]
# [7] = tested on: ABS parasites; test: Dual point activity against ABS parasites; assay type: cell-based, Plasmodium falciparum; conditions: single biological repeat
# Text: Table S2: Dual point activity of platinum(II) complexes against ABS parasites, early- and late-
# stage gametocytes. Values are averaged from technical triplicates performed for a single
# [8] = Single-point microsomal metabolic stability, mouse; assay type: in vitro ADME; conditions: mouse liver microsomes, 1 µM
# Description: (§9) 1.8. Microsomal metabolic stability studies […]
# (§10) rat IGS, Xenotech), and mouse (male mouse CD1, Xenotech) liver microsomes (0.4 mg/ml) for 30 min at 37 °C. Reactions were quenched by adding ice-cold acetonitrile containing […]
# (§11) disappearance of the parent compound. Half-life, clearance, and hepatic excretion ratios were determined using standard equations.6,7 Propranolol. […]
# [9] = Single-point microsomal metabolic stability, human; assay type: in vitro ADME; conditions: human liver microsomes, 1 µM
# Description: as §9, §10, §11
# [10] = tested on: PfK1 ABS parasites; assay type: cell-based, Plasmodium falciparum; conditions: for IC50: ABS, SYBR Green I, 96 h, mean ± S.E.; for RI (resistance index): RI = PfK1 IC50/PfNF54 IC50
# Description: as §1, §2
# [11] = late (IV/V) gametocytes, luciferase, 48 h, read-out: LG IC50
SMILES,Epa1 [2],Epc1 [2],IC50 [3] [µM],EG (% inhibition) 1 µM [4] [% inhibition],EG (% inhibition) 5 µM [4] [% inhibition],IC50 [4] [µM],LG (% inhibition) 1 µM [5] [% inhibition],LG (% inhibition) 5 µM [5] [% inhibition],"IC50 [5, 11] [µM]",IC50 [6] [µM],ABS (% inhibition) 1 µM [7] [% inhibition],ABS (% inhibition) 5 µM [7] [% inhibition],also measured
CC(C)(C)c1cc[n+]2c(c1)-c1cc(C(C)(C)C)cc[n+]1[Pt-2]21[O+]=C(c2ccccc2)N=C(N(CCO)CCO)[S]1.[Cl-] [C1],–1.233 V,–1.127 V,–,–,–,–,–,–,–,–,–,–,Aqueous solubility pH 6.5 [1]: 95 μM
OCCN(CCO)C1=NC(c2ccccc2)=[O+][Pt-2]2([S]1)[n+]1ccc(O)cc1-c1cc(O)cc[n+]12.[Cl-] [C5],–,–,> 5,0.0,0.0,> 20,0.0,0.5,> 20,> 50,0.0,11.0,–
OCCN(CCO)C1=NC(c2ccccc2)=[O+][Pt-2]2([S]1)[n+]1ccc(Cl)cc1-c1cc(Cl)cc[n+]12.[Cl-] [C7],–,–,> 5,2.2,4.1,> 20,0.0,0.4,> 20,> 50,2.7,57.3,–
OCCN(CCO)C1=NC(c2ccccc2)=[O+][Pt-2]2([S]1)[n+]1ccc(C(F)(F)F)cc1-c1cc(C(F)(F)F)cc[n+]12.[Cl-] [C8],–0.710 V,–0.607 V,> 5,26.2,50.0,> 20,80.6,85.8,0.38,> 50,10.6,29.9,"IC50 ([5]; gametocyte stage not specified, read-out: gametocidal activity IC50): < 5 µM; Microsomal metabolic stability (% remaining after 30 min) Mouse [8]: 46 % remaining; Microsomal metabolic stability (% remaining after 30 min) Human [9]: 47 % remaining; E1/2 ([2]; half-wave potential corrected to ferrocene): –1.076 V vs Fe/Fe^+; Epc2 ([2]; second nonreversible reduction): –1.272 V vs Ag/Ag^+"
CNC(=O)c1cc[n+]2c(c1)-c1cc(C(=O)NC)cc[n+]1[Pt-2]21[O+]=C(c2ccccc2)N=C(N(CCO)CCO)[S]1.[Cl-] [C9],–,–,> 5,0.0,4.5,> 20,0.0,2.4,> 20,> 50,0.0,24.5,–
COC(=O)c1cc[n+]2c(c1)-c1cc(C(=O)OC)cc[n+]1[Pt-2]21[O+]=C(c2ccccc2)N=C(N(CCO)CCO)[S]1.[Cl-] [C10],–,–,> 5,3.7,4.2,> 20,0.6,6.1,> 20,> 50,7.11,17.3,Aqueous solubility pH 6.5 [1]: <5 μM
Cc1ccc(C2=[O+][Pt-2]3([S]C(N(CCO)CCO)=N2)[n+]2ccc(C(C)(C)C)cc2-c2cc(C(C)(C)C)cc[n+]23)cc1.[Cl-] [C11],–1.239 V,–1.128 V,–,–,–,–,–,–,–,–,–,–,–
COc1ccc(C2=[O+][Pt-2]3([S]C(N(CCO)CCO)=N2)[n+]2ccc(C(C)(C)C)cc2-c2cc(C(C)(C)C)cc[n+]23)cc1.[Cl-] [C12],–1.247 V,–1.133 V,–,–,–,–,–,–,–,–,–,–,–
CC(C)(C)c1ccnc(-c2cc(C(C)(C)C)ccn2)c1.OCCN(CCO)C(=S)N=C([O][Pt+])c1ccc(Cl)cc1.[Cl-] [C13],–1.233 V,–1.119 V,–,–,–,–,–,–,–,–,–,–,–
Cc1ccc(-c2ccc(C)cn2)nc1.OCCN(CCO)C(=S)N=C([O][Pt+])c1ccccc1.[Cl-] [C14],–,–,0.241 ± 0.04,0.0,0.0,–,39.4,56.6,–,> 50,–,–,"fold improvement in PfNF54 activity compared to C2 ([3]; vs 4,4'-dimethyl complex C2): 5 fold and 6 fold; IC50 [10]: 0.886 ± 0.059 µM; RI (resistance index) [10]: 3.7"
Cc1cccc(-c2cccc(C)n2)n1.OCCN(CCO)C(=S)N=C([O][Pt+])c1ccccc1.[Cl-] [C15],–,–,2.91,2.8,43.9,9.51,54.8,84.0,1.41,5,0.0,89.6,"fold decrease in PfNF54 activity compared to C2 ([3]; vs 4,4'-dimethyl complex C2): 2 fold; IC50 [10]: 2.76 µM; RI (resistance index) [10]: 0.9"
"COC(=O)[C@H]1[C@H]2C[C@@H]3c4[nH]c5cc(OC)ccc5c4CCN3C[C@H]2C[C@@H](OC(=O)c2cc(OC)c(OC)c(OC)c2)[C@@H]1OC [Reserpine, reference compound]",–,–,–,–,–,–,–,–,–,–,–,–,solubility at 24 h ([1]; phosphate buffer): < 5 µM
